# ChEMBL document CHEMBL5053549, “Discovery of Potent and Novel Dual PARP/BRD4 Inhibitors for Efficient Treatment of Pancreatic Cancer” (J Med Chem, 2021)
# How the values were obtained:
# [1] = target: Poly [ADP-ribose] polymerase 1 (Homo sapiens, UniProt P09874); assay: Inhibition of PARP1 (unknown origin) incubated for 45 mins in presence of biotinylated-NAD+ by microplate reader analysis
# [2] = target: T1, Bromodomain-containing protein 4 (Homo sapiens, UniProt O60885); assay: Inhibition of recombinant BRD4 (unknown origin) at 0.5 uM incubated for 120 mins by TR-FRET assay relative to control
# [3] = target: T1, Bromodomain-containing protein 4; assay: Inhibition of recombinant BRD4 (unknown origin) incubated for 120 mins by TR-FRET assay
# MDA-MB-231 = assay: Antiproliferative activity against human MDA-MB-231 cells assessed as reduction in cell viability after 7 days; assay type: functional, cell-based; conditions: MDA-MB-231, 168 h
# SW1990 = assay: Antiproliferative activity against human SW1990 cells assessed as reduction in cell viability after 4 days by MTT assay; assay type: functional, cell-based; conditions: SW1990, 96 h
# Sequence of Poly [ADP-ribose] polymerase 1 (P09874 whole entry): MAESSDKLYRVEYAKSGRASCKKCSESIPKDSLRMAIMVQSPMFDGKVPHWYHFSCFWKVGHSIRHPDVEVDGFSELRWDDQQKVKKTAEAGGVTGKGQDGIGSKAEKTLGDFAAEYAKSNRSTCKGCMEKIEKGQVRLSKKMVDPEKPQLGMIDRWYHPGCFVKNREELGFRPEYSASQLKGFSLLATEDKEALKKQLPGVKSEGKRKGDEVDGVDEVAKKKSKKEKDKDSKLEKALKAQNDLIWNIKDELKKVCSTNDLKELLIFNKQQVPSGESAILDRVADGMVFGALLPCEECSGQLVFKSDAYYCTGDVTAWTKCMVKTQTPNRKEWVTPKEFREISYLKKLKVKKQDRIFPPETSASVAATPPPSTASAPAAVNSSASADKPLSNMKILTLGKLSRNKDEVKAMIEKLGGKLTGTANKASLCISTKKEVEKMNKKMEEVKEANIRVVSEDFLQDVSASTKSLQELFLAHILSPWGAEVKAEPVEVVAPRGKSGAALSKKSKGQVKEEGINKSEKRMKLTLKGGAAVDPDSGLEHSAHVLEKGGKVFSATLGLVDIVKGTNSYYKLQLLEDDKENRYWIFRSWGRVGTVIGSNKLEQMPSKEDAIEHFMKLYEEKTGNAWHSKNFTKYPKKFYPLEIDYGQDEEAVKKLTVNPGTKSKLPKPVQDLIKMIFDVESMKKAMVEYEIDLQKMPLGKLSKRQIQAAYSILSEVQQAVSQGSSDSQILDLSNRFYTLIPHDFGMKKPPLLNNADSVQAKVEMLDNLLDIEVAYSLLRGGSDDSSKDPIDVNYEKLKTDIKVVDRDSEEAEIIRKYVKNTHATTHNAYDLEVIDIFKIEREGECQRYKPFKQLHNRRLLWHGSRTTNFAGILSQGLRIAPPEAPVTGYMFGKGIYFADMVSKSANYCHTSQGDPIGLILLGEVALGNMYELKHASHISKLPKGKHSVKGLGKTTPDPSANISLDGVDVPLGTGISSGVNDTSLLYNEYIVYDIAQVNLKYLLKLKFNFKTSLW
SMILES,IC50 [1] [nM],inhibition [2] [%],IC50 [3] [nM],IC50 (MDA-MB-231) [nM],IC50 (SW1990) [nM]
CC[C@@H]1C(=O)N(C)c2cnc(Nc3ccc(C(=O)NCc4nc5c(C(N)=O)cccc5[nH]4)cc3OC)nc2N1C1CCCC1,341,–,374,–,–
CC[C@@H]1C(=O)N(C)c2cnc(Nc3ccc(CC(=O)NCc4nc5c(C(N)=O)cccc5[nH]4)cc3OC)nc2N1C1CCCC1,498,–,276,–,–
CC[C@@H]1C(=O)N(C)c2cnc(Nc3ccc(-c4nc5c(C(N)=O)cccc5[nH]4)cc3OC)nc2N1Cc1cccc(C(F)(F)F)c1,1760,17,–,–,–
CC[C@@H]1C(=O)N(C)c2cnc(Nc3ccc(Cc4nc5c(C(N)=O)cccc5[nH]4)cc3OC)nc2N1C1CCCC1,355,–,186,810,3120

# Now from value to molecule:
IC50 [1] [nM],inhibition [2] [%],IC50 [3] [nM],IC50 (MDA-MB-231) [nM],IC50 (SW1990) [nM],SMILES
236,74,–,–,–,CC[C@@H]1C(=O)N(C)c2cnc(Nc3ccc(C(C)c4nc5c(C(N)=O)cccc5[nH]4)cc3OC)nc2N1C1CCCC1 (some centres not stated)
127,–,250,470,1620,COc1cc(-c2nc3c(C(N)=O)cccc3[nH]2)ccc1Nc1ncc2c(n1)N(C1CCCC1)[C@H](C)C(=O)N2C
2050,75,–,–,–,CC[C@@H]1C(=O)N(C)c2cnc(Nc3ccc(-c4nc5c(C(N)=O)cccc5[nH]4)cc3OC(C)C)nc2N1C1CCCC1
25,–,202,460,1530,COc1cc(-c2nc3c(C(N)=O)cccc3[nH]2)ccc1N(C)c1ncc2c(n1)N(C1CCCC1)[C@H](C)C(=O)N2C
